Measurements as given in US8003649B2 (AstraZeneca AB, priority 2007, dated 2011).

The molecules below were run against T1, Androgen Receptor (AR) (Homo sapiens, UniProt P10275, T878A) (assay: LNCaP Androgen Receptor Down-regulation Cell Assay (immunofluorescence end point)). Details: LNCaP prostate carcinoma cells, compound incubation 20-22 hours, 50% reduction of the AR signal; read-out: Androgen Receptor Down-regulation Assay (a) IC50/μM.
T1 construct: cell based immuno-fluorescence assay using the LNCaP prostate epithelial cell line; endogenous in cells; host or cells: LNCaP clone FGC (ATCC CRL-1740)
T1 sequence (P10275 1-920 T878A): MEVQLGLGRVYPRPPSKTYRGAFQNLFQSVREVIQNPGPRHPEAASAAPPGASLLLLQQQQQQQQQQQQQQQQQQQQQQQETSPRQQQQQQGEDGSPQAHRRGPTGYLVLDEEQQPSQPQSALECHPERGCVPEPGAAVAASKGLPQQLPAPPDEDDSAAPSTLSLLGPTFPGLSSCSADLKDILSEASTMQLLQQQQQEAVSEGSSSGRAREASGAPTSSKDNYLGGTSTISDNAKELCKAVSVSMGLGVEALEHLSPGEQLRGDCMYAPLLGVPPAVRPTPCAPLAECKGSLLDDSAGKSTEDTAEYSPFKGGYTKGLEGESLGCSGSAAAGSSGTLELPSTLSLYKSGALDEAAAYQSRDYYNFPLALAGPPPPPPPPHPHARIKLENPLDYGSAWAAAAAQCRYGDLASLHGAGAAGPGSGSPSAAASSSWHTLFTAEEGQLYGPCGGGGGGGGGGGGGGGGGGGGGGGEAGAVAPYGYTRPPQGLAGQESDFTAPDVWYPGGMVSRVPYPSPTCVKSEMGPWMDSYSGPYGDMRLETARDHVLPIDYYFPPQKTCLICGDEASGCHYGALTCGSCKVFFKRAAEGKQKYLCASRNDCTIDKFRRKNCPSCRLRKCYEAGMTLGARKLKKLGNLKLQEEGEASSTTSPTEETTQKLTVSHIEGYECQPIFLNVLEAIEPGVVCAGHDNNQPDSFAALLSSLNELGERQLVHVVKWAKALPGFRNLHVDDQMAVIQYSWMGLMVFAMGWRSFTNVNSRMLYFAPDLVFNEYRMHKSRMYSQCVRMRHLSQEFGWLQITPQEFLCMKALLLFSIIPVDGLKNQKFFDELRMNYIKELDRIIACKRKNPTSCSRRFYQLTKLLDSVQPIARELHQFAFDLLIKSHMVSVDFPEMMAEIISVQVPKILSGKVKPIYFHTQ
Assay type: cell-based
Procedure, shortened: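 AR loss reported as IC50 from curve fits of fluorescence dose-response data, with AR immunostained and read by laser-scanning cytometry. Compound exposure was 20-22 h at 37° C in LNCaP cells grown in 5% charcoal-stripped FBS and plated overnight beforehand.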

Row | DC50 | Compound
1 | 2 µM | FC(F)(F)c1nnc2ccc(N3CC4CN(Cc5ccncc5)CC4C3)nn12 (stereo not drawn) [Example 193, 6-[2-(pyridin-4-ylmethyl)-1,3,3a,4,6,6a-hexahydropyrrolo[3,4-c]pyrrol-5-yl]-3-(trifluoromethyl)-[1,2,4]triazolo[4,3-b]pyridazine]
2 | 2.4 µM | COc1cccc(CN2CC3CN(c4ccc5nnc(C(F)(F)F)n5n4)CC3C2)c1 (stereo not drawn) [Example 194, 6-[2-[(3-methoxyphenyl)methyl]-1,3,3a,4,6,6a-hexahydropyrrolo[3,4-c]pyrrol-5-yl]-3-(trifluoromethyl)-[1,2,4]triazolo[4,3-b]pyridazine]
3 | 1.5 µM | FC(F)(F)c1cccc(CN2CC3CN(c4ccc5nnc(C(F)(F)F)n5n4)CC3C2)c1 (stereo not drawn) [Example 196, 3-(trifluoromethyl)-6-[2-[[3-(trifluoromethyl)phenyl]methyl]-1,3,3a,4,6,6a-hexahydropyrrolo[3,4-c]pyrrol-5-yl]-[1,2,4]triazolo[4,3-b]pyridazine]
4 | 0.82 µM | N#Cc1cccc(CN2CC3CN(c4ccc5nnc(C(F)(F)F)n5n4)CC3C2)c1 (stereo not drawn) [Example 197, 3-[[5-[3-(trifluoromethyl)-[1,2,4]triazolo[4,3-b]pyridazin-6-yl]-1,3,3a,4,6,6a-hexahydropyrrolo[3,4-c]pyrrol-2-yl]methyl]benzonitrile]
5 | 1.9 µM | FC(F)(F)c1ccc(CN2CC3CN(c4ccc5nnc(C(F)(F)F)n5n4)CC3C2)cc1 (stereo not drawn) [Example 199, 3-(trifluoromethyl)-6-[2-[[4-(trifluoromethyl)phenyl]methyl]-1,3,3a,4,6,6a-hexahydropyrrolo[3,4-c]pyrrol-5-yl]-[1,2,4]triazolo[4,3-b]pyridazine]
6 | 1.7 µM | FC(F)(F)c1ccc(CN2CC3CN(c4ccc5nnc(C(F)(F)F)n5n4)CC3C2)cn1 (stereo not drawn) [Example 201, 3-(trifluoromethyl)-6-[2-[[6-(trifluoromethyl)pyridin-3-yl]methyl]-1,3,3a,4,6,6a-hexahydropyrrolo[3,4-c]pyrrol-5-yl]-[1,2,4]triazolo[4,3-b]pyridazine]
7 | 1.7 µM | Fc1ccc(CN2CC3CN(c4ccc5nnc(C(F)(F)F)n5n4)CC3C2)cc1 (stereo not drawn) [Example 203, 6-[2-[(4-fluorophenyl)methyl]-1,3,3a,4,6,6a-hexahydropyrrolo[3,4-c]pyrrol-5-yl]-3-(trifluoromethyl)-[1,2,4]triazolo[4,3-b]pyridazine]
8 | 1.5 µM | FC(F)(F)c1nnc2ccc(N3CC4CN(Cc5ccc(Cl)cc5)CC4C3)nn12 (stereo not drawn) [Example 204, 6-[2-[(4-chlorophenyl)methyl]-1,3,3a,4,6,6a-hexahydropyrrolo[3,4-c]pyrrol-5-yl]-3-(trifluoromethyl)-[1,2,4]triazolo[4,3-b]pyridazine]
9 | 0.53 µM | N#Cc1ccc(CN2CC3CN(c4ccc5nnc(C(F)(F)F)n5n4)CC3C2)cc1 (stereo not drawn) [Example 205, 4-[[5-[3-(trifluoromethyl)-[1,2,4]triazolo[4,3-b]pyridazin-6-yl]-1,3,3a,4,6,6a-hexahydropyrrolo[3,4-c]pyrrol-2-yl]methyl]benzonitrile]
10 | 2 µM | FC(F)(F)c1nnc2ccc(N3CC4CN(Cc5cccnc5)CC4C3)nn12 (stereo not drawn) [Example 206, 6-[2-(pyridin-3-ylmethyl)-1,3,3a,4,6,6a-hexahydropyrrolo[3,4-c]pyrrol-5-yl]-3-(trifluoromethyl)-[1,2,4]triazolo[4,3-b]pyridazine]
11 | 7.6 µM | COc1cccc(C(=O)N2CC3CN(c4ccc5nnc(C(F)(F)F)n5n4)CC3C2)c1 (stereo not drawn) [Example 207, (3-methoxyphenyl)-[2-[3-(trifluoromethyl)-[1,2,4]triazolo[4,3-b]pyridazin-6-yl]-1,3,3a,4,6,6a-hexahydropyrrolo[3,4-c]pyrrol-5-yl]methanone]
12 | 1.8 µM | FC(F)(F)c1nnc2ccc(N3CC4CN(Cc5ccccc5)CC4C3)nn12 (stereo not drawn) [Example 210, 6-(5-benzyl-1,3,3a,4,6,6a-hexahydropyrrolo[3,4-c]pyrrol-2-yl)-3-(trifluoromethyl)-[1,2,4]triazolo[3,4-f]pyridazine]
